Results as given in patent publication US11299480B2, “2-arylsulfonamido-N-arylacetamide derivatized STAT3 inhibitors” (University of Hawaii, priority 2017, dated 2022).
Entries after “also recorded” stand apart in the source; their conditions may differ.

Assays:
[1] = molecular target: Stat3 (Mus musculus, UniProt P42227); assay type: biochemical; conditions: EMSA; read-out: IC50, inhibition of Stat3 DNA-binding activity in vitro
Description: FIG. 1. Effect of select compounds of the present invention on Stat3 DNA-binding activity in vitro. […] Positions of Stat3:DNA complexes in gel are labeled; control lanes (0) represent nuclear extracts pre-treated with 10% DMSO.
(§1) Except where indicated, nuclear extracts were pre-incubated with compound for 30 min at room temperature prior to incubation with the radiolabeled probe for 30 min at 30° C. before subjecting to EMSA analysis. Where appropriate, bands corresponding to Stat3:DNA complexes were scanned and quantified for each concentration of compound using ImageJ and plotted as percent of control (DMSO) against concentration of compound, from which the IC50 values were derived.

[2] = system: Stat5; assay: Stat5 DNA-binding activity in vitro, EMSA (MGFe probe); assay type: biochemical; conditions: 10 μM or 0-30 μM compound
Description: FIG. 2. […] Positions of Stat:DNA complexes in gel are labeled; control lanes (0 or Con) represent nuclear extracts pre-treated with 10% DMSO. […] Where appropriate, bands corresponding to Stat3:DNA complexes were scanned and quantified for each concentration of compound using ImageJ and plotted as percent of control (DMSO) against concentration of compound, from which the IC50 values were derived.

[3] = system: Stat1; assay: Stat1 DNA-binding activity in vitro, EMSA (MGFe probe); assay type: biochemical; conditions: for effect on Stat1 DNA-binding activity: 10 μM or 0-30 μM compound
Description: FIG. 2. Effects of select compounds of the present invention on Stat1 and Stat5 DNA-binding activity. […] Positions of Stat:DNA complexes in gel are labeled; control lanes (0 or Con) represent nuclear extracts pre-treated with 10% DMSO. Data are representative of 1-3 independent determinations. […] Where appropriate, bands corresponding to Stat3:DNA complexes were scanned and quantified for each concentration of compound using ImageJ and plotted as percent of control (DMSO) against concentration of compound, from which the IC50 values were derived. In order to determine the specificity of select new analogs active against Stat3 activity, the inventors investigated the effects on the inhibition of other STAT family members, including Stat1 and Stat5 DNA-binding activity in vitro.

[4] = system: pY705Stat3; assay: Constitutive Stat3 tyrosine phosphorylation, immunoblot, MDA-MB-231 cells; assay type: cell-based, human
Description: (§2) FIG. 3. Effects of select compounds of the present invention on Stat3 DNA-binding activity and Stat3 tyrosine phosphorylation in cells. (FIG. 3A) EMSA analysis of Stat3 DNA-binding activity in nuclear extracts of equal total protein prepared from cells treated with DMSO (0 as control, Con), 5 or 10 μM of compounds for 1-34 h. Positions of Stat3:DNA complexes in gel are labeled. […] Positions of Stat3:DNA complexes or proteins in gel are shown; control (0 or Con) lane represents whole-cell lysates or nuclear extracts prepared from 0.05% DMSO-treated cells. […] Data are representative of 2-3 independent determinations.
(§3) All antibodies tested were purchased from Cell Signaling Technology.
(§4) Altogether, the new analogs show strong, albeit variable degrees of inhibition of constitutive Stat3 DNA-binding activity and Tyr phosphorylation in human tumor cells.

[5] = system: pY705Stat3; assay: Constitutive Stat3 tyrosine phosphorylation, immunoblot, MDA-MB-468 cells; assay type: cell-based, human
Description: as §2, §3, §4

[6] = system: MDA-MB-231; assay: Cell growth, trypan blue exclusion/phase-contrast microscopy, MDA-MB-231; assay type: cell-based, human
Description: (§5) FIG. 5. Effects of select compounds of the present invention on cell viability, growth, colony survival and migration in vitro. […] Cell numbers were counted by trypan blue exclusion/phase-contrast microscopy every […], and cell growth curve was plotted.
(§6) Cells in 6-well or 96-well plates were treated with or without compounds for the indicated concentrations and time, and subjected to MTT assay or CyQuant cell proliferation assay (Invitrogen/ThermoFisher Scientific), or harvested and the viable cells were counted by trypan blue exclusion with phase-contrast microscopy.
(§7) Constitutive Stat3 activity promotes tumor cell growth and proliferation and survival (Darnell J E (2005) Nat Med. 11:595-6; Bowman T, et al., (2000) Oncogene 19:2474-2488). Some of the compounds of the present invention were tested against tumor cells harboring constitutively-active Stat3.

[7] = system: NIH3T3 mouse fibroblasts; assay: Cell growth, trypan blue exclusion/phase-contrast microscopy, NIH3T3; assay type: cell-based; conditions: NIH3T3 (no aberrantly-active Stat3), trypan blue exclusion, 72 h
Description: as §5, §6, §7

[8] = system: MDA-MB-231; assay: CyQuant cell viability assay, MDA-MB-231; assay type: cell-based, human; conditions: MDA-MB-231, CyQuant, 0-10 μM, 72 h
Description: (§8) FIG. 6. Effects of select compounds of the present invention on cell viability. […] Cells were first grown in 6-well plates then were treated once with 0-10 μM of the indicated compounds for 72 h. Viable cells were assayed using CyQuant cell proliferation kit and plotted as % cell viability against concentration. Control (0) represents 0.05% DMSO-treated cells. Values, mean ± S.D. of 2-3 independent determinations.
as §6, §7

[9] = system: MDA-MB-468; assay: CyQuant cell viability assay, MDA-MB-468; assay type: cell-based, human; conditions: MDA-MB-468, CyQuant, 0-10 μM, 72 h
Description: as §8, §6, §7

[10] = system: MCF7; assay: CyQuant cell viability assay, MCF7; assay type: cell-based, human; conditions: 72 h
Description: as §8, §6, §7

[11] = molecular target: Stat3 (Homo sapiens (Human), UniProt P40763); assay: Stat3 DNA-binding activity in nuclear extracts of treated MDA-MB-231 cells, EMSA; assay type: cell-based; conditions: 10 μM
Description: as §2
as §1, with “The ^32P-labeled oligonucleotide probes used were hSIE (high affinity sis-inducible element from the c-fos gene, m67 variant, 5′-[…]) (SEQ ID NO: 1) that binds Stat1 and Stat3 and MGFe (mammary gland factor element from the bovine β-casein gene promoter, 5′-[…]) (SEQ ID NO: 2) for Stat1 and Stat5 binding. Except” for “Except”
Select compounds of the invention were investigated for their inhibitory effects of the active analogs on intracellular Stat3 signaling. […] Nuclear extracts were prepared and subjected to EMSA analysis for Stat3 DNA-binding activity. […] Stat3 DNA-binding activity in MDA-MB-231 cells was inhibited by both Examples 1 and 5 following treatment at 3 h, with little change at 1 h (FIG. 3A).

[12] = system: pY705Stat3; assay: Constitutive Stat3 Tyr705 phosphorylation, immunoblot, C8161 metastatic melanoma cells; assay type: cell-based, human; conditions: C8161, 10 or 20 μM for 1 and 3 h
Description: as §2, §3, §4

[13] = system: pY705Stat3; assay: Constitutive Stat3 Tyr705 phosphorylation, immunoblot, 1205LU metastatic melanoma cells; assay type: cell-based, human; conditions: 10 or 20 μM for 1 and 3 h
Description: as §2, §3, §4

[14] = system: pY705Stat3; assay: Constitutive Stat3 Tyr705 phosphorylation, immunoblot, UACC903 metastatic melanoma cells; assay type: cell-based, human; conditions: UACC903, 10 or 20 μM for 1 and 3 h
Description: as §2, §3, §4

[15] = system: MEF/Stat3−/−; assay: Cell viability, Stat3 null mouse embryonic fibroblasts; assay type: cell-based; conditions: 48-72 h
Description: as §5, §6, §7

[16] = system: C8161; assay: Cell viability, C8161 metastatic melanoma cells; assay type: cell-based, human; conditions: C8161, 48 h, 10 and 20 micromolar
Description: as §5, §6, §7

[17] = system: 1205LU; assay: Cell viability, 1205LU metastatic melanoma cells; assay type: cell-based, human; conditions: 48 h, 10 and 20 micromolar
Description: as §5, §6, §7

[18] = system: C81-61; assay: Cell viability, C81-61 melanoma cells; assay type: cell-based, human; conditions: C81-61, 48 h, 10 and 20 micromolar
Description: as §5, §6, §7

[19] = system: AR7119; assay: Cell viability, immortalized normal melanocytes AR7119; assay type: cell-based, human; conditions: AR7119 (no aberrant Stat3 activation), 48 h
Description: as §5, §6, §7

[20] = system: pJak2; assay: Stat3-independent signaling, immunoblot of pJak2, MDA-MB-231 cells; assay type: cell-based, human; conditions: MDA-MB-231, 5 μM, 24 h treatment
Description: (§9) FIG. 4. Effects of select compounds of the present invention on Stat3-independent signal transduction events. […] Positions of proteins in gel are labeled; control lane (Con) represents whole-cell lysate prepared from 0.05% DMSO-treated cells.
as §3, §4

[21] = system: pSrc; assay: Stat3-independent signaling, immunoblot of pSrc, MDA-MB-231 cells; assay type: cell-based, human; conditions: MDA-MB-231, 5 μM, 24 h treatment
Description: as §9, §3, §4

[22] = system: pERK1/2; assay: Stat3-independent signaling, immunoblot of pERK1/2, MDA-MB-231 cells; assay type: cell-based, human; conditions: MDA-MB-231, 5 μM, 24 h treatment
Description: as §9, §3, §4

Chain of Stat3 (Homo sapiens (Human), UniProt P40763) (P40763 whole entry): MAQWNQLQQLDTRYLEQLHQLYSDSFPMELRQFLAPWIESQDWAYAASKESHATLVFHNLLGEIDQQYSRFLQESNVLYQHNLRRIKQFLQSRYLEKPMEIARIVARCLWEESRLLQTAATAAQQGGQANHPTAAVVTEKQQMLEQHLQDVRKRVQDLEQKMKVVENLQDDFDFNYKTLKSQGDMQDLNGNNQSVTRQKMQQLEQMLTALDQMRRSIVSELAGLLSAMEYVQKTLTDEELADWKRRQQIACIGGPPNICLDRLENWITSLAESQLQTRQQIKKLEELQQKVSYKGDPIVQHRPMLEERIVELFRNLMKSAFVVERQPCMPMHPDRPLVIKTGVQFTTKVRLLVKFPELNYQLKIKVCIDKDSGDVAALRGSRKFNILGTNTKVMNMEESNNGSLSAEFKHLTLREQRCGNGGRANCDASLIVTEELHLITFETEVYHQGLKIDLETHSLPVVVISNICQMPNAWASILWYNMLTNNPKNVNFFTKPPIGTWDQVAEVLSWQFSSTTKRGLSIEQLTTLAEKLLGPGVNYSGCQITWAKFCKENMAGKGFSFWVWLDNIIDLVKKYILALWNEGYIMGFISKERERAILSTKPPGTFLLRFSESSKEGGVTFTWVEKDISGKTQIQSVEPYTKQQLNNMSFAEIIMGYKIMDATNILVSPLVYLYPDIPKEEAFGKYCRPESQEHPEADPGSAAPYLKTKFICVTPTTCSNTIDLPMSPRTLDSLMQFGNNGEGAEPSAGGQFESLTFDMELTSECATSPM
Chain of Stat3 (Mus musculus, UniProt P42227) (P42227 2-770 limits assumed): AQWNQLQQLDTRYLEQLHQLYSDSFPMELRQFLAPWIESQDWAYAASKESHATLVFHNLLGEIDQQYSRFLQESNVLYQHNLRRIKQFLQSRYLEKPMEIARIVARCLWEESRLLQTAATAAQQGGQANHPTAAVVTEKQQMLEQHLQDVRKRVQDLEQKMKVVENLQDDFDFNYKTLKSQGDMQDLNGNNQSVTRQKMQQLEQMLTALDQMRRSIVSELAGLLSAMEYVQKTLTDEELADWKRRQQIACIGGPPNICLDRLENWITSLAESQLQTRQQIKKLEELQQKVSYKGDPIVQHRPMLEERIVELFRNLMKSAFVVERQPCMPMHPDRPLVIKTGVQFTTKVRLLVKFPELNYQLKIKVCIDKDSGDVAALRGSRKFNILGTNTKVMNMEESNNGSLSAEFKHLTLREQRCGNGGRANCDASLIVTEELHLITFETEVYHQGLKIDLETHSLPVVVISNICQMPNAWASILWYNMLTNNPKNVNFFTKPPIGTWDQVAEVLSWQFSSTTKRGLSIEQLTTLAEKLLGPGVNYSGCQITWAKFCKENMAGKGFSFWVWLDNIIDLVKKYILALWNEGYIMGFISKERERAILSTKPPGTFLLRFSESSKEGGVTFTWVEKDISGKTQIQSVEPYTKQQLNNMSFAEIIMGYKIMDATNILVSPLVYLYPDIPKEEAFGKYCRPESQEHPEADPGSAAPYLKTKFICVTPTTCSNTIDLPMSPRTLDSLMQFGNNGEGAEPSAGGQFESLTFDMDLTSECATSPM

C[C@H](C(=O)N(Cc1ccc(C2CCCCC2)cc1)c1ccc(C(=O)O)cc1F)N(C)S(=O)(=O)c1c(F)c(F)c(F)c(F)c1F [Example 37, (R)-4-(N-(4-cyclohexylbenzyl)-2-((2,3,4,5,6-pentafluoro-N-methylphenyl)sulfonamido)propanamido)-3-fluorobenzoic acid]
IC50 [1]: 1.8 ± 0.94 µM | effect on Stat5 DNA-binding activity [2]: no measureable effect | effect on Stat1 DNA-binding activity [3]: no measureable effect | constitutive pY705Stat3 levels ([4]; MDA-MB-231, treatment for 1 h): strongly inhibited | constitutive pY705Stat3 levels ([5]; MDA-MB-468, treatment for 1 h): strongly inhibited | IC50 ([6]; Homo sapiens, MDA-MB-231, 72 h): 3.9 µM | cell growth, time- or dose-dependent ([6]; printed as MDA-MB-231 and/or MDA-MB-468, trypan blue exclusion, 3 μM Example 37 or 5 μM Example 25, 0-96 h): suppressed | IC50 [7]: 5.1 µM | cell viability [8]: suppressed the viability | cell viability [9]: suppressed the viability | toxicity to MCF7 cells ([10]; 10 μM): general toxicity | cell viability ([10]; MCF7 (no aberrantly-active Stat3), CyQuant): only weakly or not inhibited

C[C@H](C(=O)N(Cc1ccc(C2CCCCC2)cc1)c1ccc(C(=O)O)c(O)c1)N(C)S(=O)(=O)c1c(F)c(F)c(F)c(F)c1F [Example 1, (R)-4-(N-(4-Cyclohexylbenzyl)-2-((2,3,4,5,6-pentafluoro-N-methylphenyl)sulfonamido)propan-amido)-2-hydroxybenzoic acid]
effect on Stat5 DNA-binding activity [2]: also disrupted Stat5 DNA-binding activity; also recorded: concentration-dependent | effect on Stat1 DNA-binding activity [3]: only weakly affected | concentration at which a non-specific effect on Stat1 DNA-binding activity was observed ([3]; 10 vs 30 μM): 30 µM | Stat3 DNA-binding activity in MDA-MB-231 cells ([11]; 1 h treatment): little change | Stat3 DNA-binding activity in MDA-MB-231 cells ([11]; 3 h treatment): inhibited | pY705Stat3 levels ([4]; MDA-MB-231, 5 μM, 1 h treatment): inhibited pY705Stat3 levels | pY705Stat3 levels ([5]; MDA-MB-468, 5 μM, 1 h treatment (inhibition stated only for MDA-MB-231)): only inhibited pY705Stat3 levels in MDA-MB-231 | constitutive Stat3 Tyr705 phosphorylation [12]: strongly inhibited | constitutive Stat3 Tyr705 phosphorylation [13]: strongly inhibited | constitutive Stat3 Tyr705 phosphorylation [14]: strongly inhibited | cell viability [8]: suppressed the viability | cell viability [9]: suppressed the viability | cell viability [15]: only weakly inhibited the viability | cell viability [16]: strongly inhibited the viability | cell viability [17]: strongly inhibited the viability | cell viability [18]: strongly inhibited the viability | cell viability [19]: relatively weaker activity

Cc1cc(C(=O)O)ccc1N(Cc1ccc(C2CCCCC2)cc1)C(=O)[C@@H](C)N(C)S(=O)(=O)c1c(F)c(F)c(F)c(F)c1F [Example 42, (R)-4-(N-(4-cyclohexylbenzyl)-2-((2,3,4,5,6-pentafluoro-N-methylphenyl)sulfonamido)propanamido)-3-methylbenzoic acid]
effect on pJak2 [20]: little effect | effect on pSrc [21]: little effect | effect on pERK1/2 [22]: little effect
